# Reference: PMC8720025, “PTHG2 Reduces Bone Loss in Ovariectomized Mice by Directing Bone Marrow Mesenchymal Stem Cell Fate” (Stem Cells International, 2021)
# Columns and labels:
# [1] = test system: CREB phosphorylation in BMSCs; assay: Western blotting of CREB phosphorylation (cAMP-PKA signaling); format: cell-based, C57/BL6 mice
# Experimental: The unstimulated group was the control group. After the stimulation, the cells were digested, and RIPA cell lysate (containing protein phosphatase inhibitors) was added and centrifuged. 30 μg protein was separated with SDS-PAGE. The proteins were then shifted to the nitrocellulose membrane using a trans-Blot Turbo Transfer System (Bio-Rad Laboratories, Hercules, CA, USA). Membrane was sealed with 5% bovine serum albumin (BSA) for 1 h. Membrane and specific primary antibody were incubated overnight at 4°C. Then, membrane was disposed with fluorescently labeled secondary Goat anti-Rabbit IgG Antibody (Dylight) for 1 hour at 25°C. The protein bands were imaged with a Bio-Rad visual imaging system (Bio-Rad Laboratories, Hercules, CA), and the relative protein expression was analyzed by Image J.
# [2] = CD spectroscopy, peptide helicity; format: physicochemical; details: 50 μM peptide in 50.0% TFE water solution, 25°C (legend: 20°C), from [θ]222
# Experimental: CD parameters was collected on a JASCO J-820 spectropolarimeter (JASCO Corp., Ltd). […] The sample ellipticity data were collected at 25°C and 195 nm. The helicity of the polypeptide is calculated by the following formula [36, 37]. (1) α=θ222/ θmax×100%.
# [θ]222 was the molar ellipticity at the absorption wavelength of 222 nm, [θ]max = ([…] + 250 T) (1 − K/N), K = 4, and N was the number of amino acids of the polypeptide (n = 34).
# [3] = test system: OVX-induced bone loss in mice; assay: OVX-induced bone loss model (micro-CT, histology, qPCR); format: in vivo, C57/BL6 mice
# BMSCs [4] = assay: CCK-8 cell viability assay; format: cell-based, C57/BL6 mice; details: concentrations below 100 μM, 48 h and 96 h, absorbance 450 nm
# Experimental: BMSCs were extracted from the femoral and tibial marrow cavity of 5-week-old C57/BL6 mice and cultured in mouse bone marrow mesenchymal stem cell medium for 2-3 days. The new culture medium was changed until the adherent cells grew 95% confluence and cell passage, or subsequent experiments were carried out. The cell growth environment was 37°C, 5% CO2, and […].
# Cell viability of BMSCs were tested using the CCK-8 (Dojindo Molecular Technology, Kumamoto, Japan) according to instruction. BMSCs were inoculated in a 96-well plate (5 × 10^3 cells per well) and hatched overnight. […] Then, cells were disposed with 10 μl of CCK-8 reagent for 2 hours. After incubation, the absorbance was measured at 450 nm in a Biotek Cytation 5 System (Biotek Instruments, Vermont, USA).
# BMSCs [5] = assay: Cell cycle analysis by PI staining and flow cytometry; format: cell-based, C57/BL6 mice; details: PI staining, flow cytometry
# Experimental: Cells were cultured with 10 μM BrdU for one hour and fixed in 70% ethanol at -20 C. After washing with phosphate/citric buffer (40 ml Na2HPO4 with 4 ml 0.1 M citric acid), the cells were incubated with anti-BrdU antibody for one hour, then stained with propidium iodide (PI). For PI/RNase staining, cells were incubated with 0.5 ml of PI/RNAse staining buffer (BD Pharmingen) at 25°C for 15 minutes, then analyzed by flow cytometry.
# BMSCs [6] = assay: In vitro adipogenesis assay of BMSCs; format: cell-based, C57/BL6 mice
# [7] = test system: heart, liver, spleen, lung, and kidney of mice; assay: In vivo tissue toxicity test (H&E staining of organs); details: H&E staining after administration
# Experimental: (a) BMSC cell viability as assessed by CCK-8 assay following treatment without or with indicated concentrations of PTHG2 for 48 and 96 h. […] (c) The relative expression of Cebp-α and Perilipin following PTHG2 treatment was quantified by real-time PCR. (d) After pretreatment with H89, BMSC differentiated and stained with Alizarin red for 21 days. Supplementary Material 2: H&E staining of the heart, liver, spleen, lung, and kidney after administration of normal saline, PTH, and PTHG2. Click here for additional data file.
# BMSCs [8] = assay: In vitro osteogenesis assay of BMSCs; format: cell-based, C57/BL6 mice
# [9] = 20/40 μg·kg−1 intraperitoneal daily for 8 weeks, compared with OVX group
Structure (SMILES),"phosphorylation level of CREB ([1]; BMSCs pretreated with H89-2HCl for 1 hour, then stimulated with PTH (1-34)/PTHG2 for 6 hours)",helicity [2],"bone trabeculae number (Tb. N), micro-CT of femur [3, 9]","bone volume fraction (BV/TV), micro-CT of femur [3, 9]","phosphorylation level of CREB ([1]; BMSCs starved 1 hour, stimulated with 10 μM peptide for 6 hours, without H89-2HCl)",toxicity to BMSCs (CCK-8) (BMSCs [4]),effect on cell cycle (BMSCs [5]),"number of adipocytes (oil red staining) (BMSCs [6]; adipogenic conditioned medium, 21 days, compared with the control)","adipogenic gene protein expression (Fabp4/PPARɣ/Adiponectin) (BMSCs [6]; adipogenic differentiation, compared with control group)","tissue toxicity to heart, liver, spleen, lung, and kidney [7]","number of FABP4-positive cells (IHC, distal femur) [3]","OCN positivity, immunofluorescence of distal femur ([3]; 8 weeks of treatment)","number of lining cells on the trabecular bone surface (H&E) ([3]; 8 weeks of treatment, compared to the OVX group, n = 6 per group)","expression of OCN gene in bone mRNA (qPCR) ([3]; bone of the upper limb, compared with the OVX group)","inhibition of adipocyte generation (Fabp4 gene, qPCR) ([3]; compared with PTH (1-34))","number of adipocytes (vacuoles/cavitation) in H&E staining ([3]; metaphysis, compared with OVX group)","osteogenic differentiation activity of BMSCs (ALP staining) (BMSCs [8]; 10 nM, 6 h/day, osteogenic medium, 7 days)","expression of Runx2 gene (qPCR) (BMSCs [8]; 10 nM, osteogenic differentiation, compared with control group)","ALP and RUNX2 protein levels (Western blotting) (BMSCs [8]; osteogenic differentiation, 3, 7, and 10 days, compared to the control group)"
"O=S(=O)(NCCNC/C=C/c1ccc(Br)cc1)c1cccc2cnccc12 [H89-2HCL, H89-2HCl, reference compound]",not increased,,,,,,,,,,,,,,,,,,
"CC[C@H](C)[C@H](NC(=O)[C@H](CCC(=O)O)NC(=O)[C@H](CO)NC(=O)[C@@H](NC(=O)[C@@H](N)CO)C(C)C)C(=O)N[C@@H](CCC(N)=O)C(=O)N[C@@H](CC(C)C)C(=O)N[C@@H](CCSC)C(=O)N[C@@H](Cc1c[nH]cn1)C(=O)N[C@@H](CC(N)=O)C(=O)N[C@@H](CC(C)C)C(=O)NCC(=O)N[C@@H](CCCCN)C(=O)N[C@@H](Cc1c[nH]cn1)C(=O)N[C@@H](CC(C)C)C(=O)N[C@@H](CC(N)=O)C(=O)N[C@@H](CO)C(=O)N[C@@H](CCSC)C(=O)N[C@@H](CCC(=O)O)C(=O)N[C@@H](CCCNC(=N)N)C(=O)N[C@H](C(=O)N[C@@H](CCC(=O)O)C(=O)N[C@@H](Cc1c[nH]c2ccccc12)C(=O)N[C@@H](CC(C)C)C(=O)N[C@@H](CCCNC(=N)N)C(=O)N[C@@H](CCCCN)C(=O)N[C@@H](CCCCN)C(=O)N[C@@H](CC(C)C)C(=O)N[C@@H](CCC(N)=O)C(=O)N[C@@H](CC(=O)O)C(=O)N[C@H](C(=O)N[C@@H](Cc1c[nH]cn1)C(=O)N[C@@H](CC(N)=O)C(=O)N[C@@H](Cc1ccccc1)C(=O)O)C(C)C)C(C)C [PTH (1-34), Teriparatide, reference compound]",,38.5%,significantly increased,significantly increased,,,,,,,,,,,,,,,
CC[C@H](C)[C@H](NC(=O)[C@H](CCC(=O)O)NC(=O)[C@H](CO)NC(=O)[C@@H](NC(=O)[C@@H](N)CO[C@@H]1O[C@H](CO)[C@@H](O)[C@H](O)[C@H]1NC(C)=O)C(C)C)C(=O)N[C@@H](CCC(N)=O)C(=O)N[C@@H](CC(C)C)C(=O)N[C@@H](CCSC)C(=O)N[C@@H](Cc1c[nH]cn1)C(=O)N[C@@H](CC(N)=O)C(=O)N[C@@H](CC(C)C)C(=O)NCC(=O)N[C@@H](CCCCN)C(=O)N[C@@H](Cc1c[nH]cn1)C(=O)N[C@@H](CC(C)C)C(=O)N[C@@H](CC(N)=O)C(=O)N[C@@H](CO)C(=O)N[C@@H](CCSC)C(=O)N[C@@H](CCC(=O)O)C(=O)N[C@@H](CCCNC(=N)N)C(=O)N[C@H](C(=O)N[C@@H](CCC(=O)O)C(=O)N[C@@H](Cc1c[nH]c2ccccc12)C(=O)N[C@@H](CC(C)C)C(=O)N[C@@H](CCCNC(=N)N)C(=O)N[C@@H](CCCCN)C(=O)N[C@@H](CCCCN)C(=O)N[C@@H](CC(C)C)C(=O)N[C@@H](CCC(N)=O)C(=O)N[C@@H](CC(=O)O)C(=O)N[C@H](C(=O)N[C@@H](Cc1c[nH]cn1)C(=O)N[C@@H](CC(N)=O)C(=O)N[C@@H](Cc1ccccc1)C(=O)O)C(C)C)C(C)C [PTHG2],,39.1%,,,increased,no toxicity,no effect,did not increase,resemble to that of the control group,no toxicity,reduced,significant increase,significantly increased,significantly increased,same effect as PTH (1-34),significantly reduced,significantly enhanced,higher than that in control group,significantly increased
